System: writhing in Cox standard strain albino male mice
Test: mouse-writhing test (analgesic), acetic acid-induced writhing
Format: in vivo
Settings: oral (p.o.), corn oil-acacia emulsion, writhing induced by intraperitoneal 0.55% (55 mg/kg) acetic acid, read-out: ED50 (effective dosage needed to inhibit 50% of the writhing)
Procedure: An intraperitoneal injection of 0.55% (55 mg/kg.) acetic acid induces writhing in the mice, which is characterized by contraction of the abdominal musculature, extension of the hindlegs, and rotation of the trunk. The compounds were administered in a corn oil-acacia emulsion. The number of writhes is counted for both the control and treated animals and the percent inhibition computed as follows: [formula]
All dosages were given orally (p.o.) and are expressed in mg/kg. The term "ED50 " means an effective dosage needed to inhibit 50% of the writhing.

Row | SMILES | ED50 [mg/kg]
1 | COc1ccc(-c2nc(-c3ccc(Br)cc3)sc2-c2ccc(OC)cc2)cc1 [2-(4-Bromophenyl)-4,5-bis(4-methoxyphenyl)thiazole] | 1.46
2 | COc1ccc(-c2nc(-c3ccc(Cl)cc3)sc2-c2ccc(OC)cc2)cc1 [2-(4-Chlorophenyl)-4,5-bis(4-methoxyphenyl)thiazole] | 3.75
3 | COc1ccc(-c2nc(-c3ccc(F)cc3)sc2-c2ccc(OC)cc2)cc1 [2-(4-Fluorophenyl)-4,5-bis(4-methoxyphenyl)thiazole] | 0.82
4 | COc1ccc(-c2nc(-c3ccccc3)sc2-c2ccc(OC)cc2)cc1 [2-Phenyl-4,5-bis(4-methoxyphenyl)thiazole] | 2.3
